According to patent US9802943B2, “HIV inhibiting bicyclic pyrimidine derivatives” (Janssen Sciences Ireland UC, priority 2004, dated 2017):

Columns and labels:
[1] = tested on: Strain B (mutation K103N in HIV reverse transcriptase); test: cellular antiviral assay, HIV mutant strain B; type: cell-based; conditions: for EC50: Human immunodeficiency virus 1, read-out: pEC50 B (converted)
Experimental: (§1) Because of the increasing emergence of drug resistant HIV strains, the present compounds were tested for their potency against clinically isolated HIV strains harboring several mutations. These mutations are associated with resistance to reverse transcriptase inhibitors and result in viruses that show various degrees of phenotypic cross-resistance to the currently commercially available drugs such as for instance AZT and delavirdine.
(§2) The antiviral activity of the compound of the present invention has been evaluated in the presence of wild type HIV and HIV mutants bearing mutations at the reverse transcriptase gene. The activity of the compounds is evaluated using a cellular assay and the residual activity is expressed in pEC50 values. The columns IIIB and A-G in the table list the pEC50 values against various strains IIIB, A-G. • Strain IIIB is wild type HIV-LAI strain • Strain A contains mutation Y181C in HIV reverse transcriptase, • Strain B contains mutation K103N in HIV reverse transcriptase, • Strain C contains mutation L100I in HIV reverse transcriptase, • Strain D contains mutation Y188L in HIV reverse transcriptase, • Strain E contains mutations L100I and K103N in HIV reverse transcriptase, • Strain F contains mutations K103N and Y181C in HIV reverse transcriptase, and • Strain G contains mutations L100I, K103N, Y181C, V179I E138G L214F, V278V/I • and A327A/V in HIV reverse transcriptase.

[2] = tested on: Strain A (mutation Y181C in HIV reverse transcriptase); test: cellular antiviral assay, HIV mutant strain A; type: cell-based; conditions: for EC50: Human immunodeficiency virus 1, read-out: pEC50 A (converted)
Experimental: as §1, §2

[3] = tested on: Strain D (mutation Y188L in HIV reverse transcriptase); test: cellular antiviral assay, HIV mutant strain D; type: cell-based; conditions: for EC50: Human immunodeficiency virus 1, read-out: pEC50 D (converted)
Experimental: as §1, §2

[4] = tested on: Strain C (mutation L100I in HIV reverse transcriptase); test: cellular antiviral assay, HIV mutant strain C; type: cell-based; conditions: for EC50: Human immunodeficiency virus 1, read-out: pEC50 C (converted)
Experimental: as §1, §2

[5] = tested on: Strain E (mutations L100I and K103N in HIV reverse transcriptase); test: cellular antiviral assay, HIV mutant strain E; type: cell-based; conditions: for EC50: Human immunodeficiency virus 1, read-out: pEC50 E (converted)
Experimental: as §1, §2

[6] = tested on: Strain F (mutations K103N and Y181C in HIV reverse transcriptase); test: cellular antiviral assay, HIV mutant strain F; type: cell-based; conditions: for EC50: Human immunodeficiency virus 1, read-out: pEC50 F (converted)
Experimental: as §1, §2

[7] = tested on: Strain IIIB (wild type HIV-LAI strain); test: cellular antiviral assay, wild type HIV; type: cell-based; conditions: for EC50: Human immunodeficiency virus 1, IIIB, read-out: pEC50 IIIB (converted)
Experimental: as §1, §2

[8] = tested on: Strain G (mutations L100I, K103N, Y181C, V179I E138G L214F, V278V/I and A327A/V in HIV reverse transcriptase); test: cellular antiviral assay, HIV mutant strain G; type: cell-based; conditions: for EC50: Human immunodeficiency virus 1, read-out: pEC50 G (converted)
Experimental: as §1, §2

Compound	EC50 [1] [nM]	EC50 [2] [nM]	EC50 [3] [nM]	EC50 [4] [nM]	EC50 [5] [nM]	EC50 [6] [nM]	melting point [°C]	EC50 [7] [nM]	EC50 [8] [nM]	pEC50 B ([1]; strain B, K103N)	pEC50 A ([2]; strain A, Y181C)	pEC50 D ([3]; strain D, Y188L)	pEC50 C ([4]; strain C, L100I)	pEC50 E ([5]; strain E, L100I and K103N)	pEC50 F ([6]; strain F, K103N and Y181C)	pEC50 IIIB ([7]; strain IIIB, wild type HIV-LAI)	pEC50 G ([8]; strain G, L100I, K103N, Y181C, V179I E138G L214F, V278V/I and A327A/V)
Cc1cc(/C=C/C#N)cc(C)c1-n1cnc2cnc(Nc3ccc(C#N)cc3)nc21 [Compound 20]	0.631	2.51	15.8	0.631	7.94	39.8	> 250	0.2	2000								
CCOC(=O)c1cc(C)c(N2CCc3c(C)nc(Nc4ccc(C#N)cc4)nc32)c(C)c1 [Compound 33]	126	2510	631	794	3980	3160	92	50.1	12600								
Cc1cc(/C=C/C#N)cc(C)c1-n1c(=S)[nH]c2cnc(Nc3ccc(C#N)cc3)nc21 [Compound 31]	2.51	12.6	79.4	2.51	398	39.8	> 250	1	15800								
C/C(C#N)=C\c1cc(C)c(N2CCc3c(C)nc(Nc4ccc(C#N)cc4)nc32)c(C)c1 [Compound 34]	2.51	15.8	20	3.98	15.8	20	105	2	3980								
CCc1cc(C=CC#N)cc(CC)c1N1CCc2c(C)nc(Nc3ccc(C#N)cc3)nc21 (mixture of isomers) [Compound 3]										8.5	7.8	7.8	8.7	8.5	7.7	7.9	5.7
